In US4693992A, “Bacitracin-metal-polyether antibiotic complexes” (International Minerals & Chemical Corp., priority 1985, dated 1987):

Legend:
Eimeria tenella [1] = test: Anticoccidial activity in chickens inoculated with Eimeria tenella (Example 12); assay type: in vivo, chicken; settings: for Cecal Bleeding / Gain/Bird Days 0-3 / Gain/Bird Days 4-10: regrouped part of Table 2; for anticoccidial activity (in words): 120 grams per ton
Description: (§1) This example describes experimental testing of complexes of this invention for anticoccidial activity. Anticoccidial activities of test compounds were determined by administering the compounds (in feed) to chickens inoculated with active oocysts of Eimeria tenella. The test compounds, which are listed in Table 1 below, included four bacitracin-metal-polyether antibiotic complexes prepared according to the procedures described above. In addition, sodium lysocellin, regular bacitracin, sodium monensin, sodium lasolocid, and unmedicated inoculated and noninoculated controls were included for comparative purposes.
(§2) The test animals were Hubbard White Mountain male chicken (broiler strain) that were 5 days old at the beginning of the test. Each experimental compound was administered in a chick starter diet (Table 2) at a level of 80 g/ton and 120 g/ton. At 7 days of age, chicks were individually weighed, banded, and started on their respective treatments. Each treatment was replicated three times with five birds per replicate for a total of 15 birds per group. The test period was 10 days.
Seventy-two hours after the initiation of medication, birds were reweighed and orally inoculated with approximately 100,000 Eimeria tenella oocysts suspended in a 1 cc dose of saline. The following criteria were then evaluated over the next seven days:
A satisfactory challenge was obtained with Eimeria tenella.

Eimeria tenella [2] = test: Anticoccidial activity in chickens inoculated with Eimeria tenella oocysts (Example 11); assay type: in vivo; settings: for Incidence of Bloody Droppings / Morbidity: 4th-6th day; for Morbidity: birds affected/birds in group; for Mortality: 4th-7th day, birds dead/birds in group; for F/G Day 0-3 / F/G Day 4-10: feed per gain
Description: as §1, §2
Seventy-two hours after the initiation of medication, birds were reweighed and orally inoculated with approximately 100,000 Eimeria tenella oocysts suspended in a 1 cc dose of saline. The following criteria were then evaluated over the next seven days: […]
a. morbidity (4th-6th day) b. mortality (4th-7th day) c. incidence of bloody droppings (4th-6th day)

[3] = Weight gain and feed utilization efficiency in chicks, 11 days (Example 13); assay type: in vivo, chicken; parameters: key to Average Weight: average weight in grams; settings: .00275% in rye basal diet; for Average Gain / Gain/Feed Ratio: 11 days; for Average Weight / Gain/Feed: Table 4; for Average Gain Index / Gain/Feed Ratio Index: unmedicated = 100
Description: (§3) This example describes experimetnal testing of complexes of the present invention as feed additives for improving weight gain or feed utilization efficiency in birds. Test animals were male meat-type chickens (Hubbard strain). Fluorescent room lights were on a 16 hours light/8 hours dark schedule. The chicks were allotted to the pens on the basis of weight classes, and chicks in the even numbered pens were wing banded. Group weights were obtained at the start and individual weights at the termination of the experiment. Chicks weighing between 55 and 65 grams were selected for the test. The test compounds were blended with a basal feed ration (shown in Table 2) at the indicated concentration. Birds fed […] and feed supplemented with zinc bacitracin (Baciferm® 50, International Minerals and Chemical Corp.) were used as controls. The test was continued for 11 days, after which individual weights, pen weight and feed consumption were recorded and analyzed.

[4] = Weight gain and feed utilization in chicks, 12 days (Example 14); assay type: in vivo, chicken; settings: .0066% in feed; for Gain/Feed Data / Gains/gram Data: 12 days; for Gain/Feed Index Relative to #1 / Gains Index Relative to #1: #1 = unmedicated; for Gain/Feed Index Relative to #2 / Gains Index Relative to #2: #2 = zinc bacitracin
Description: as §3
All of the bacitracin-metal-polyether antibiotic complexes tested produced statistically significant increases in gains compared to the unmedicated basal ration.
The test involving test compounds 1 and 3-14 consisted of 5 replicates of 7 chicks and those involving test compound 2 consisted of 6 replicates of 7 chicks. The tests were continued for 12 days, after which individual weight gains and feed conusumption were recorded and analyzed.

Bacitracin-Copper-Lysocellin Complex [Example 2]
Cecal Bleeding (Eimeria tenella [1]; 14 g/ton Lasalocid (Approx.)): Severe
Gain/Bird Days 0-3 (Eimeria tenella [1]; 14 g/ton Lasalocid (Approx.)): 60.5
Gain/Bird Days 4-10 (Eimeria tenella [1]; 14 g/ton Lasalocid (Approx.)): 171.5
Cecal Bleeding (Eimeria tenella [1]; 36 g/ton Lasalocid (Approx.)): Slight-Moderate
Gain/Bird Days 0-3 (Eimeria tenella [1]; 36 g/ton Lasalocid (Approx.)): 57.0
Gain/Bird Days 4-10 (Eimeria tenella [1]; 36 g/ton Lasalocid (Approx.)): 198.7
Incidence of Bloody Droppings (Eimeria tenella [1]; 80 g/ton in feed): Severe
Morbidity (Eimeria tenella [1]; 80 g/ton in feed): 5/15
Mortality (Eimeria tenella [1]; 80 g/ton in feed): 0/15
F/G Day 0-3 (Eimeria tenella [1]; 80 g/ton in feed): 1.68
Gain/Bird Grams Day 0-3 (Eimeria tenella [1]; 80 g/ton in feed): 60.5 Grams
F/G Day 4-10 (Eimeria tenella [1]; 80 g/ton in feed): 1.92
Gain/Bird Grams Day 4-10 (Eimeria tenella [1]; 80 g/ton in feed): 171.5 Grams
Cecal bleeding associated with E. tenella infections (Eimeria tenella [1]; 80 gram per ton): severe
weight gains compared with those of test compound 5 and lasalocid (Eimeria tenella [1]; 80 gram per ton (lasalocid 24 gram per ton)): appreciably higher
Morbidity (Eimeria tenella [1]; 120 g/ton in feed): 4/15
Mortality (Eimeria tenella [1]; 120 g/ton in feed): 0/15
F/G Day 0-3 (Eimeria tenella [1]; 120 g/ton in feed): 1.75
Gain/Bird Grams Day 0-3 (Eimeria tenella [1]; 120 g/ton in feed): 57.0 Grams
F/G Day 4-10 (Eimeria tenella [1]; 120 g/ton in feed): 1.74
Gain/Bird Grams Day 4-10 (Eimeria tenella [1]; 120 g/ton in feed): 198.7 Grams
anticoccidial activity (in words) (Eimeria tenella [1]): good anticoccidial activity
Incidence of Bloody Droppings (Eimeria tenella [2]; 80 g/ton in feed): Severe
Morbidity (Eimeria tenella [2]; 80 g/ton in feed): 6/15
Mortality (Eimeria tenella [2]; 80 g/ton in feed): 1/15
Gain, Grams Day 0-3 (Eimeria tenella [2]; 80 g/ton in feed): 59.0 Grams
Gain, Grams Day 4-10 (Eimeria tenella [2]; 80 g/ton in feed): 200.2 Grams
F/G Day 0-3 (Eimeria tenella [2]; 80 g/ton in feed): 1.67
F/G Day 4-10 (Eimeria tenella [2]; 80 g/ton in feed): 1.74
Morbidity (Eimeria tenella [2]; 120 g/ton in feed): 6/15
Mortality (Eimeria tenella [2]; 120 g/ton in feed): 0/15
Gain, Grams Day 0-3 (Eimeria tenella [2]; 120 g/ton in feed): 64.3 Grams
Gain, Grams Day 4-10 (Eimeria tenella [2]; 120 g/ton in feed): 203.5 Grams
F/G Day 0-3 (Eimeria tenella [2]; 120 g/ton in feed): 1.69
F/G Day 4-10 (Eimeria tenella [2]; 120 g/ton in feed): 1.74

Bacitracin-Manganese-Lysocellin Complex [Example 3]
Cecal Bleeding (Eimeria tenella [1]; 14 g/ton Lasalocid (Approx.)): Moderate
Gain/Bird Days 0-3 (Eimeria tenella [1]; 14 g/ton Lasalocid (Approx.)): 61.3
Gain/Bird Days 4-10 (Eimeria tenella [1]; 14 g/ton Lasalocid (Approx.)): 154.0
Cecal Bleeding (Eimeria tenella [1]; 36 g/ton Lasalocid (Approx.)): Slight-Moderate
Gain/Bird Days 0-3 (Eimeria tenella [1]; 36 g/ton Lasalocid (Approx.)): 61.3
Gain/Bird Days 4-10 (Eimeria tenella [1]; 36 g/ton Lasalocid (Approx.)): 202.4
Incidence of Bloody Droppings (Eimeria tenella [1]; 80 g/ton in feed): Moderate
Morbidity (Eimeria tenella [1]; 80 g/ton in feed): 10/15
Mortality (Eimeria tenella [1]; 80 g/ton in feed): 0/15
F/G Day 0-3 (Eimeria tenella [1]; 80 g/ton in feed): 1.81
Gain/Bird Grams Day 0-3 (Eimeria tenella [1]; 80 g/ton in feed): 61.3 Grams
F/G Day 4-10 (Eimeria tenella [1]; 80 g/ton in feed): 2.01
Gain/Bird Grams Day 4-10 (Eimeria tenella [1]; 80 g/ton in feed): 154.0 Grams
Morbidity (Eimeria tenella [1]; 120 g/ton in feed): 2/15
Mortality (Eimeria tenella [1]; 120 g/ton in feed): 0/15
F/G Day 0-3 (Eimeria tenella [1]; 120 g/ton in feed): 1.58
Gain/Bird Grams Day 0-3 (Eimeria tenella [1]; 120 g/ton in feed): 61.3 Grams
F/G Day 4-10 (Eimeria tenella [1]; 120 g/ton in feed): 1.74
Gain/Bird Grams Day 4-10 (Eimeria tenella [1]; 120 g/ton in feed): 202.4 Grams
anticoccidial activity (in words) (Eimeria tenella [1]): good anticoccidial activity
Average Gain [3]: 215 g
Gain/Feed Ratio [3]: 64.6
Average Weight [3]: 274.8
Gain/Feed [3]: 64.6
Average Gain Index [3]: 104.5
Gain/Feed Ratio Index [3]: 101.3
Gain/Feed Data [4]: .588
Gains/gram Data [4]: 202.0 gram
Gain/Feed Index Relative to #1 [4]: 104.4
Gains Index Relative to #1 [4]: 109.1
Gain/Feed Index Relative to #2 [4]: 98.6
Gains Index Relative to #2 [4]: 96.4
anticoccidial activity (in words) (Eimeria tenella [2]; 80 and 120 g/ton, mild E. tenella challenge): excellent anticoccidial activity
Incidence of Bloody Droppings (Eimeria tenella [2]; 80 g/ton in feed): None
Morbidity (Eimeria tenella [2]; 80 g/ton in feed): 1/15
Mortality (Eimeria tenella [2]; 80 g/ton in feed): 0/15
Gain, Grams Day 0-3 (Eimeria tenella [2]; 80 g/ton in feed): 61.7 Grams
Gain, Grams Day 4-10 (Eimeria tenella [2]; 80 g/ton in feed): 226.6 Grams
F/G Day 0-3 (Eimeria tenella [2]; 80 g/ton in feed): 1.62
F/G Day 4-10 (Eimeria tenella [2]; 80 g/ton in feed): 1.59
Incidence of Bloody Droppings (Eimeria tenella [2]; 120 g/ton in feed): None
Morbidity (Eimeria tenella [2]; 120 g/ton in feed): 1/15
Mortality (Eimeria tenella [2]; 120 g/ton in feed): 0/15
Gain, Grams Day 0-3 (Eimeria tenella [2]; 120 g/ton in feed): 57.7 Grams
Gain, Grams Day 4-10 (Eimeria tenella [2]; 120 g/ton in feed): 231.8 Grams
F/G Day 0-3 (Eimeria tenella [2]; 120 g/ton in feed): 1.68
F/G Day 4-10 (Eimeria tenella [2]; 120 g/ton in feed): 1.61

Bacitracin-Zn-Lasalocid Complex
Average Gain [3]: 225 g
Gain/Feed Ratio [3]: 65.6
Average Weight [3]: 285.6
Gain/Feed [3]: 65.6
Average Gain Index [3]: 109.4
Gain/Feed Ratio Index [3]: 103.0
Gain/Feed Data [4]: .609
Gains/gram Data [4]: 213.5 gram
Gain/Feed Index Relative to #1 [4]: 108.2
Gains Index Relative to #1 [4]: 115.3
Gain/Feed Index Relative to #2 [4]: 102.2
Gains Index Relative to #2 [4]: 101.9
